From ChEMBL document CHEMBL6153079, “Discovery of noncovalent diaminopyrimidine-based Inhibitors for glioblastoma via a dual FAK/DNA targeting strategy” (Eur J Med Chem, 2025)
Activity calls are given as the source filed them. No cut-off for these calls is given here.

Columns and labels:
[1] = Selectivity ratio of IC50 for cytotoxicity against human LO2 assessed as cell viability to IC50 for antiproliferative activity against human U-87 MG assessed as cell viability; assay type: toxicity; settings: LO2 cells versus U-87 MG cells, read-out: Ratio IC50
U-87 MG [2] = assay: Induction of apoptosis in human U-87 MG cells assessed as necrotic cells at 0.2 uM measured upto 24 hrs by Annexin V-FITC/PI staining based flow cytometry analysis (reference value: 0.62%); assay type: functional, U-87MG ATCC
U-87 MG [3] = assay: Induction of apoptosis in human U-87 MG cells assessed as viable cells at 0.2 uM measured upto 24 hrs by Annexin V-FITC/PI staining based flow cytometry analysis (reference value: 98.4%); assay type: functional, U-87MG ATCC; settings: read-out: Activity
U-87 MG [4] = assay: Induction of apoptosis in human U-87 MG cells assessed as […] in cleaved caspase-3 level at 0.05 to 0.8 uM incubated for 24 hrs by Western blot analysis; assay type: functional, cell-based; settings: U-87MG ATCC, dose 0.05-0.8 µM
U-87 MG [5] = assay: Antitumor activity against human U-87 MG cells xenografted in BALB/c mouse assessed as inhibition of tumor growth at 5 mg/kg, ip administered once daily for 15 days; assay type: functional, U-87MG ATCC; settings: 360 h, time 15 day, read-out: TGI
U-87 MG [6] = assay: Induction of cell cycle arrest in human U-87 MG cells assessed as accumulation of cells at G0/G1 phase at 0.2 uM by propidium Iodide staining based flow cytometry analysis (reference value: 80.68%); assay type: functional, U-87MG ATCC
U-87 MG [7] = assay: Induction of apoptosis in human U-87 MG cells assessed as early apoptotic cells at 0.02 uM measured upto 24 hrs by Annexin V-FITC/PI staining based flow cytometry analysis (reference value: 0.45%); assay type: functional, U-87MG ATCC
[8] = Toxicity in BALB/c mouse implanted with human U-87 MG cells assessed as tubular epithelial degeneration in renal cortex at 25 mg/kg, ip administered once daily for 15 days by H and E staining based analysis; assay type: organism-based; settings: in vivo, 360 h, time 15 day
U-87 MG [9] = assay: Induction of apoptosis in human U-87 MG cells assessed as necrotic cells at 2 uM measured upto 24 hrs by Annexin V-FITC/PI staining based flow cytometry analysis (reference value: 0.62%); assay type: functional, U-87MG ATCC
U-87 MG [10] = assay: Inhibition of AKT phosphorylation in human U-87 MG cells at 0.05 uM incubated for 24 hrs by Western blot analysis; assay type: cell-based
U-87 MG [11] = assay: Antiproliferative activity against human U-87 MG assessed as inhibition of cell growth at 0.025 to 0.1 uM; assay type: functional, U-87MG ATCC; settings: dose 0.025-0.1 µM
U-87 MG [12] = assay: Induction of apoptosis in human U-87 MG cells assessed as late apoptotic cells at 0.02 uM measured upto 24 hrs by Annexin V-FITC/PI staining based flow cytometry analysis (reference value: 0.54%); assay type: functional, U-87MG ATCC
U-87 MG [13] = assay: Induction of cell cycle arrest in human U-87 MG cells assessed as accumulation of cells at S phase at 0.01 uM by propidium Iodide staining based flow cytometry analysis (reference value: 9.59%); assay type: functional, U-87MG ATCC
U-87 MG [14] = assay: Inhibition of ERK1/2 phosphorylation in human U-87 MG cells at 0.05 uM incubated for 24 hrs by Western blot analysis; assay type: cell-based
[15] = Cytotoxicity against human LO2 assessed as cell viability incubated for 48 hrs by MTT assay; assay type: toxicity, cell-based, L02; settings: LO2 cells
Focal adhesion kinase 1 [16] = target: T1, Focal adhesion kinase 1 (Homo sapiens, UniProt Q05397); assay: Inhibition of FAK (unknown origin) at 50 nM relative to control
U-87 MG [17] = assay: Induction of cell cycle arrest in human U-87 MG cells assessed as accumulation of cells at S phase at 0.02 uM by propidium Iodide staining based flow cytometry analysis (reference value: 9.59%); assay type: functional, U-87MG ATCC
U-87 MG [18] = assay: Induction of cell cycle arrest in human U-87 MG cells assessed as accumulation of cells at […] at 2 uM by propidium Iodide staining based flow cytometry analysis (reference value: 1.67%); assay type: functional, U-87MG ATCC
U-87 MG [19] = assay: Inhibition of AKT phosphorylation in human U-87 MG cells at 0.8 uM incubated for 24 hrs by Western blot analysis; assay type: cell-based
[20] = Toxicity in BALB/c mouse implanted with human U-87 MG cells assessed as lung damage at 5 mg/kg, ip administered once daily for 15 days by H and E staining based analysis; assay type: organism-based; settings: in vivo, 360 h, time 15 day
[21] = Effective permeability of compound at pH 7.4 incubated for 16 hrs by LCMS analysis; assay type: ADME; settings: pH 7.4, 16 h
Focal adhesion kinase 1 [22] = target: T1, Focal adhesion kinase 1; assay: Inhibition of FAK (unknown origin) at 10 nM relative to control
U-87 MG [23] = assay: Induction of apoptosis in human U-87 MG cells assessed as early apoptotic cells at 0.01 uM measured upto 24 hrs by Annexin V-FITC/PI staining based flow cytometry analysis (reference value: 0.45%); assay type: functional, U-87MG ATCC
[24] = Toxicity in BALB/c mouse implanted with human U-87 MG cells assessed as tolerability at 5 to 25 mg/kg, ip administered once daily for 15 days by H and E staining based analysis; assay type: organism-based; settings: in vivo, 360 h, dose 5-25 mg/kg, time 15 day
U-87 MG [25] = assay: Induction of cell cycle arrest in human U-87 MG cells assessed as accumulation of cells at […] at 0.01 uM by propidium Iodide staining based flow cytometry analysis (reference value: 1.67%); assay type: functional, U-87MG ATCC
U-87 MG [26] = assay: Inhibition of ERK1/2 phosphorylation in human U-87 MG cells at 0.8 uM incubated for 24 hrs by Western blot analysis; assay type: cell-based
U-87 MG [27] = assay: Inhibition of colony formation in human U-87 MG cells at 0.005 uM incubated for 14 days and subsequent media replacement with compound for every 3 days by crystal violet staining based analysis; assay type: functional, cell-based; settings: U-87MG ATCC, time 14.0 day
U-87 MG [28] = assay: Inhibition of cell migration in human U-87 MG cells assessed as […] in migration distance at 0.1 to 1 uM incubated for 24 to 48 hrs by wound healing assay; assay type: functional, cell-based; settings: U-87MG ATCC, dose 0.1-1 µM, time lower 24.0 hrs, time upper […]
U-87 MG [29] = assay: Induction of apoptosis in human U-87 MG cells assessed as necrotic cells at 0.02 uM measured upto 24 hrs by Annexin V-FITC/PI staining based flow cytometry analysis (reference value: 0.62%); assay type: functional, U-87MG ATCC
U-87 MG [30] = assay: Induction of apoptosis in human U-87 MG cells assessed as viable cells at 0.02 uM measured upto 24 hrs by Annexin V-FITC/PI staining based flow cytometry analysis (reference value: 98.4%); assay type: functional, U-87MG ATCC; settings: read-out: Activity
Focal adhesion kinase 1 [31] = target: T1, Focal adhesion kinase 1; assay: Inhibition of FAK phosphorylation in human U-87 MG cells at 0.05 uM incubated for 24 hrs by Western blot analysis; assay type: cell-based
U-87 MG [32] = assay: Induction of cell cycle arrest in human U-87 MG cells assessed as accumulation of cells at G2M phase at 2 uM by propidium Iodide staining based flow cytometry analysis (reference value: 9.73%); assay type: functional, U-87MG ATCC
[33] = Toxicity in BALB/c mouse implanted with human U-87 MG cells assessed as hypertrophy in myocardium at 5 mg/kg, ip administered once daily for 15 days by H and E staining based analysis; assay type: organism-based; settings: in vivo, 360 h, time 15 day
U-87 MG [34] = assay: Induction of cell cycle arrest in human U-87 MG cells assessed as accumulation of cells at S phase at 2 uM by propidium Iodide staining based flow cytometry analysis (reference value: 9.59%); assay type: functional, U-87MG ATCC

T1 sequence (Q05397 2-1052 limits assumed): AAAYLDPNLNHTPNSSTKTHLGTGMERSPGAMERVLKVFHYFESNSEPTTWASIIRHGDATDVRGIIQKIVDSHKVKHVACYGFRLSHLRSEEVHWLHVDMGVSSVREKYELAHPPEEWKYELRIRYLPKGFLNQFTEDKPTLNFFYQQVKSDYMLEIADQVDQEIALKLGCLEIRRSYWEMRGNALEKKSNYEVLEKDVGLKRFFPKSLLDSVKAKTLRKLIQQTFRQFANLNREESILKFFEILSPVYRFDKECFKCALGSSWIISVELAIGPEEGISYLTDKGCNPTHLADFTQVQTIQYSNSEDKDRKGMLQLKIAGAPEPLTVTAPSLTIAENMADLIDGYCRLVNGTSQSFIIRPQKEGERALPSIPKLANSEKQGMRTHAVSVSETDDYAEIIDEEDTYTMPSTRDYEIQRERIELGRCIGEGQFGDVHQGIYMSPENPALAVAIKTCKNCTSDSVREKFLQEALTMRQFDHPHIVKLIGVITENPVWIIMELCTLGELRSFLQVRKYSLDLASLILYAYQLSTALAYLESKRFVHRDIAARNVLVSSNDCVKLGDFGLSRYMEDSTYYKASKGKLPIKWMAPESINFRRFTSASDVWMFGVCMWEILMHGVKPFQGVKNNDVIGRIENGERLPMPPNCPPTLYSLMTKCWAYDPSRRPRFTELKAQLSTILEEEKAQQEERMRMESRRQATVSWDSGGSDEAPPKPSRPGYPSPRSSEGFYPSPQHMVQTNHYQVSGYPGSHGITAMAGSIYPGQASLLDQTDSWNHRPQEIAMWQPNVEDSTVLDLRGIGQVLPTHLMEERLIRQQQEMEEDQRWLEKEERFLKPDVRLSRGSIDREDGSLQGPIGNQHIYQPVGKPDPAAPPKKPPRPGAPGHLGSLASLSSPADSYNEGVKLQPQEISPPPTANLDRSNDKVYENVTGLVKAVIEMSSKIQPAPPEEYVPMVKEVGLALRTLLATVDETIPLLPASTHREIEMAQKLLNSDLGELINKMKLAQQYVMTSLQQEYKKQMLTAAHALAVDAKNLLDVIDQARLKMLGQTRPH

Compound CNC(=O)c1ccccc1Nc1nc(Nc2ccc(N3CCN(CCOC(=O)CCCc4ccc(N(CCCl)CCCl)cc4)CC3)cc2)ncc1C(F)(F)F has a selectivity ratio [1] of over 40, an Activity (U-87 MG [2]) of 2.31% and a viability at 0.2 µM (U-87 MG [3]) of 63.7%. For the same compound, the Activity (U-87 MG [4]) was “Active”, the inhibition in vivo at 5 mg/kg (U-87 MG [5]) was 63.7% and the Activity (U-87 MG [6]) was 44.98%. The Activity (U-87 MG [7]) was 25.9%, the Activity [8] was “Non-toxic” and the Activity (U-87 MG [9]) was 2.16%. The inhibition (U-87 MG [10]) was “Active”, the “inhibition (INH)” value (U-87 MG [11]) was 100% and the Activity (U-87 MG [12]) was 4.8%. The Activity (U-87 MG [13]) was 13.83%, the inhibition (U-87 MG [14]) was “Active” and the IC50 at 48 h [15] was 586 nM. The inhibition (Focal adhesion kinase 1 [16]) was 100%, the Activity (U-87 MG [17]) was 16.42% and the Activity (U-87 MG [18]) was 1.88%. For the same compound, the inhibition (U-87 MG [19]) was 100%, the Activity [20] was “Non-toxic” and the Peff [21] was 0.002 10^-6 cm/s. For the same compound, the inhibition (Focal adhesion kinase 1 [22]) was 98.6%, the Activity (U-87 MG [23]) was 15.8% and the Activity [24] was “Non-toxic”. For the same compound, the Activity (U-87 MG [25]) was 1.77%, the inhibition (U-87 MG [26]) was 100% and the inhibition (U-87 MG [27]) was “Active”. For the same compound, the inhibition (U-87 MG [28]) was “Active”, the Activity (U-87 MG [29]) was 5.5% and the viability at 0.02 µM (U-87 MG [30]) was 63.8%. The inhibition (Focal adhesion kinase 1 [31]) was “Active”, the Activity (U-87 MG [32]) was 50.11% and the Activity [33] was “Non-toxic”. It also gave an Activity (U-87 MG [34]) of 10.99%.
